Experiment [1] relates to SJSA-1 cells (p53 wild-type, MDM2 amplified osteosarcoma). The experiment is described as follows: Protocol A: SJSA-1 growth inhibition (sulphorhodamine B). As to conditions: read-out: SJSA-1 IC50 (μM) (Protocol A); SJSA-1, Protocol A.
Protocol: Protocol A: SJSA-1 and SN40R2 Assays
(§1) The MDM2 amplified cell lines tested were an isogenic matched pair of p53 wild-type and mutated osteosarcoma (SJSA-1 and SN40R2, respectively). […] Following incubation with the SRB dye at room temperature for 30 min, the plates were washed with 1% acetic acid and left to dry. […] The GI50 was calculated by non-linear regression analysis of the data using Prism v4.0 statistical software.
The target of experiment [2] is MDM2-p53 interaction (Homo sapiens (Human), UniProt Q00987). As to conditions: for inhibition at 0.001 µM: read-out: MDM2 % inhibition @0.0010; for inhibition at 0.03 µM: read-out: MDM2 % inhibition @0.030.
Protocol: MDM2-053 Interaction Using a 96-Well Plate Binding Assay (ELISA)
The ELISA assay was performed in streptavidin coated plates which were preincubated with 200 μl per well of 1 μg ml^−1 biotinylated IP3 peptide. The plates were ready to use for MDM2 binding after washing the plate with PBS.
The bound HRP activity was measured by enhanced chemiluminesence (ECL™, Amersham Biosciences) using the oxidation of the diacylhydrazide substrate, luminol, to generate a quantifiable light signal. The percentage of MDM2 inhibition at a given concentration is calculated as the [1−(RLU detected in the compound treated sample−RLU negative DMSO control)÷(RLU of DMSO positive and negative controls)]×100 or as the (RLU detected in the compound treated sample÷RLU of DMSO controls)×100. The IC50 was calculated using a plot of % MDM2 inhibition vs concentration and is the average of two or three independent experiments.
In experiment [3] the test system is SN40R2 cells (p53 mutated, MDM2 amplified osteosarcoma). The experiment is described as follows: Protocol A: SN40R2 growth inhibition (sulphorhodamine B). As to conditions: for inhibition at 50 µM: read-out: SN40R2 % inhibition at 50.
Protocol: Protocol A: SJSA-1 and SN40R2 Assays
as §1
Experiment [4] relates to SN40R2 cells. The experiment is described as follows: Protocol B: SN40R2 CellTiter-Glo luminescent cell viability assay. A general note: ATP-based viability assays read luminescence as a measure of living cells.
For experiment [5], the system named is SJSA-1 cells. The experiment is described as follows: Protocol B: SJSA-1 CellTiter-Glo luminescent cell viability assay.
[6] abbreviates: read-out: SN40R2 % inhibition at 10, Protocol B, SN40R2, at 10 μM.
Where [7] appears, read: read-out: SJSA1 IC50, Protocol B, SJSA-1.
Where [8] appears, read: Homo sapiens, SJSA-1, read-out: SJSA1 IC50 (μM), Protocol B, SJSA-1.
Where [9] appears, read: read-out: SN40R2 % inhibition at 10.

Like-named read-outs stand apart in the source and are kept apart here.

Sequence of MDM2-p53 interaction (Q00987 whole entry): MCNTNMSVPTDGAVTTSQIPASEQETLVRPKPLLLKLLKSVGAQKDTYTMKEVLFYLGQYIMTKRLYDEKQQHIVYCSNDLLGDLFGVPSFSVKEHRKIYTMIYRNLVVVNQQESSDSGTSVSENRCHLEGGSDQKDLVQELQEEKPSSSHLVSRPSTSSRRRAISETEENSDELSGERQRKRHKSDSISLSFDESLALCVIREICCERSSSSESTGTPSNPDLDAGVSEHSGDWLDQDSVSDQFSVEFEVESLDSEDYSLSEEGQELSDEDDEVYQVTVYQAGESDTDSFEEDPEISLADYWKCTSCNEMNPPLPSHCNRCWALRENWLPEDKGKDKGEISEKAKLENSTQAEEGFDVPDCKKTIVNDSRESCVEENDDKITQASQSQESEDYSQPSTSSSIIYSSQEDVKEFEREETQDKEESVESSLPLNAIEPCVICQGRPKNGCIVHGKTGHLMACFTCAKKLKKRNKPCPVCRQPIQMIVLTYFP

Broadly, the IC50 is the point on the concentration scale where inhibition reaches its midpoint. In the case of `CO[C@]1(c2ccc(Cl)cc2)c2ccc(C(C)(O)CN3CCNC3=O)cc2C(=O)N1Cc1ccc(Cl)cn1` (single isomer, unassigned) [Example 157], the IC50 in experiment [1] was 6.4 µM. Moreover, the “MDM2 % at stated concentration” value in experiment [2] (at 0.30 μM) was determined as 39%@0.30.
Regarding `CO[C@]1(c2ccc(Cl)cc2)c2ccc(C(C)(O)CN3CCNC3=O)cc2C(=O)N1Cc1ccc(Cl)cn1` (single isomer, unassigned) [Example 158], the IC50 in experiment [1] was determined as 1.2 µM. In experiment [2] (at 0.10 μM), the “MDM2 % at stated concentration” value came out at 57%@0.10.
`CO[C@]1(c2ccc(Cl)cc2)c2ccc(C(C)(O)CN3CCOCC3=O)cc2C(=O)N1Cc1ccc(Cl)cn1` (single isomer, unassigned) [Example 327]: the IC50 in experiment [1] came to 9.3 µM. Moreover, the “MDM2 % at stated concentration” value in experiment [2] (at 0.30 μM) was determined as 42%@0.30.
`CO[C@]1(c2ccc(Cl)cc2)c2ccc(C(C)(O)CN3CCOCC3=O)cc2C(=O)N1Cc1ccc(Cl)cn1` (single isomer, unassigned) [Example 328]: the IC50 in experiment [1] amounted to 2.3 µM. The “MDM2 % at stated concentration” value in experiment [2] (at 0.10 μM) was 42%@0.10.
As to `CO[C@]1(c2ccc(Cl)cc2)c2ccc(C(C)(O)CN3CC(=O)NC3=O)cc2C(=O)N1Cc1ccc(Cl)cn1` (single isomer, unassigned) [Example 329], in experiment [1], the half-maximal inhibitory concentration (IC50) amounted to 3 µM. Further, in experiment [2] (at 0.30 μM), the “MDM2 % at stated concentration” value is recorded as 61%@0.30.
In the case of `CO[C@]1(c2ccc(Cl)cc2)c2ccc(C(C)(O)CN3CC(=O)NC3=O)cc2C(=O)N1Cc1ccc(Cl)cn1` (single isomer, unassigned) [Example 330], the IC50 in experiment [1] came out at 7.1 µM. Besides, in experiment [2] (at 0.30 μM), the “MDM2 % at stated concentration” value was determined as 36%@0.30.
In general, inhibition refers to the share of the control response that was lost under treatment. With `CCC(O)(c1cc(F)c2c(c1)C(=O)N(Cc1ccc(C#N)cn1)[C@@]2(OCCOC)c1ccc(Cl)cc1)c1cn(C)cn1` (single isomer, unassigned) [Example 430], the inhibition at 50 µM in experiment [3] is 33%. Further, the inhibition at 0.001 µM in experiment [2] amounted to 59%. For the same compound, the inhibition at 10 µM in experiment [4] (setting [6]) was determined as 4%.
With `CCC(O)(c1cc(F)c2c(c1)C(=O)N(Cc1ccc(C#N)nc1)[C@@]2(O[C@H]1CCOC1)c1ccc(Cl)cc1)c1cn(C)cn1` (single isomer, unassigned) [Example 431], the inhibition at 50 µM in experiment [3] was determined as 39%. For the same compound, the inhibition at 0.001 µM in experiment [2] came to 48%. Further, in experiment [5] (setting [7]), the IC50 is 0.16 µM. Moreover, the inhibition at 10 µM in experiment [4] (setting [6]) is 5%.
For `CCC(O)(c1cc(F)c2c(c1)C(=O)N(Cc1ncc(C#N)cn1)[C@@]2(OCC1(C#N)CC1)c1ccc(Cl)cc1)c1cn(C)cn1` (single isomer, unassigned) [Example 462], the inhibition at 50 µM in experiment [3] worked out at 37%. For the same compound, the inhibition at 0.001 µM in experiment [2] was 80%. In experiment [4] (setting [6]), the inhibition at 10 µM came out at 4%.
Consider `CCC(O)(c1cc(F)c2c(c1)C(=O)N(Cc1ncc(Cl)cn1)[C@@]2(O[C@H]1CCOC1)c1ccc(Cl)cc1)c1cn(C)cn1` (single isomer, unassigned) [Example 475], for which the inhibition at 50 µM in experiment [3] was 46%. Further, the inhibition at 0.001 µM in experiment [2] was 71%. Also, the IC50 in experiment [5] (setting [7]) amounted to 0.022 µM.
Taken in the same sequence, the figures for `CCC(O)(c1cc(F)c2c(c1)C(=O)N(Cc1ncc(Cl)cn1)[C@@]2(OCCO)c1ccc(Cl)cc1)[C@H]1CC[C@H](O)CC1` (single isomer, unassigned) [Example 517] were 26%, 82% and 0.01 µM.
Turning to `CCC(O)(CN1CCNCC1)c1cc(F)c2c(c1)C(=O)N(Cc1ncc(Cl)cn1)[C@@]2(OCC1(C#N)CC1)c1ccc(Cl)cc1` (single isomer, unassigned) [Example 536], the inhibition at 0.001 µM in experiment [2] came out at 64%. For the same compound, in experiment [5] (setting [7]), the IC50 came out at 0.13 µM. Further, the inhibition at 10 µM in experiment [4] (setting [6]) amounted to 46%.
As for `CCC(O)(CN1CCNCC1)c1cc(F)c2c(c1)C(=O)N(Cc1ncc(Cl)cn1)[C@@]2(OCC1(F)COC1)c1ccc(Cl)cc1` (single isomer, unassigned) [Example 538], in experiment [2], the inhibition at 0.03 µM was 44%. For the same compound, the IC50 in experiment [5] (setting [7]) stood at 2.2 µM. Also, the inhibition at 10 µM in experiment [4] (setting [6]) stood at 43%.
Consider `CCC(O)(c1cc(F)c2c(c1)C(=O)N(Cc1ncc(Cl)cn1)[C@@]2(O[C@H]1CCOC1)c1ccc(Cl)cc1)C1(F)CCNCC1` (single isomer, unassigned) [Example 540], for which, in experiment [2], the inhibition at 0.03 µM was found to be 33%. The IC50 in experiment [5] (setting [7]) amounted to 1.8 µM. Moreover, the inhibition at 10 µM in experiment [4] (setting [6]) was 62%.
As to `CN1CCC(C(C)(O)c2cc(F)c3c(c2)C(=O)N(Cc2ncc(Cl)cn2)[C@@]3(OCC2(CO)CC2)c2ccc(Cl)cc2)CC1` (single isomer, unassigned) [Example 554], in experiment [3], the inhibition at 50 µM stood at 46%. Also, the inhibition at 0.001 µM in experiment [2] worked out at 74%. In addition, in experiment [4] (setting [6]), the inhibition at 10 µM was 11%.
For `CC(C)(O)c1cc(F)c2c(c1)C(=O)N(Cc1ccc(Cl)cc1)[C@@]2(OCC1(CO)CC1)c1ccc(Cl)cc1` [Example 2, (3R)-3-(4-chlorophenyl)-2-[(4-chlorophenyl)methyl]-4-fluoro-3-{[1-(hydroxymethyl)cyclopropyl]methoxy}-6-(2-hydroxypropan-2-yl)-2,3-dihydro-1H-isoindol-1-one], in experiment [3] (72 h, read-out: SN40R2 IC50 (μM) (Protocol A)), the IC50 was 17 µM.
As to `CCC(O)(c1cc(F)c2c(c1)C(=O)N(Cc1ncc(Cl)cc1O)[C@@]2(OCCO)c1ccc(Cl)cc1)c1cn(C)cn1` (stereo partly drawn) [Example 443, (3R)-2-[(5-chloro-3-hydroxypyridin-2-yl)methyl]-3-(4-chlorophenyl)-4-fluoro-6-[1-hydroxy-1-(1-methyl-1H-imidazol-4-yl)propyl]-3-(2-hydroxyethoxy)-2,3-dihydro-1H-isoindol-1-one], the figures for the IC50 in experiment [3] (read-out: SN40R2 IC50 (μM)) and in experiment [5] (setting [8]) were 38 µM and 0.093 µM, respectively. Further, in experiment [4] (setting [9]), the inhibition at 10 µM was 3%.
Turning to `CCC(O)(c1cc(F)c2c(c1)C(=O)N(Cc1ccc(C#N)cn1)[C@@]2(O[C@H]1CCOC1)c1ccc(Cl)cc1)C1(F)CCOCC1` (stereo partly drawn) [Example 446, 6-{[(1R)-1-(4-chlorophenyl)-7-fluoro-5-[1-(4-fluorooxan-4-yl)-1-hydroxypropyl]-3-oxo-1-[(3S)-oxolan-3-yloxy]-2,3-dihydro-1H-isoindol-2-yl]methyl}pyridine-3-carbonitrile], the IC50 was 29 µM in experiment [3] (read-out: SN40R2 IC50 (μM)) and 0.023 µM in experiment [5] (setting [7]).
With `CCC(O)(c1cc(F)c2c(c1)C(=O)N(Cc1ncc(Cl)cn1)[C@@]2(OCC1(C(N)=O)CC1)c1ccc(Cl)cc1)c1cn(C)cn1` (stereo partly drawn) [Example 486, 1-({[(1R)-1-(4-chlorophenyl)-2-[(5-chloropyrimidin-2-yl)methyl]-7-fluoro-5-[1-hydroxy-1-(1-methyl-1H-imidazol-4-yl)propyl]-3-oxo-2,3-dihydro-1H-isoindol-1-yl]oxy}methyl)cyclopropane-1-carboxamide], in experiment [3], the inhibition at 50 µM came out at 10%. For the same compound, the inhibition at 0.001 µM in experiment [2] amounted to 59%. The IC50 in experiment [5] (setting [7]) was determined as 0.051 µM.
Consider `CC[C@@](O)(c1cc(F)c2c(c1)C(=O)N(Cc1ncc(C#N)cn1)[C@@]2(O[C@H]1CCOC1)c1ccc(Cl)cc1)C1CCC(O)CC1` (stereo partly drawn) [Example 503, 2-{[(1R)-1-(4-chlorophenyl)-7-fluoro-5-{1-hydroxy-1-[trans-4-hydroxycyclohexyl]propyl}-3-oxo-1-[(3S)-oxolan-3-yloxy]-2,3-dihydro-1H-isoindol-2-yl]methyl}pyrimidine-5-carbonitrile], for which the inhibition at 0.001 µM in experiment [2] was found to be 87%. In addition, the IC50 in experiment [5] (setting [8]) turned out to be 0.011 µM. Also, in experiment [4] (setting [6]), the inhibition at 10 µM is 13%.
Regarding `CC[C@](O)(c1cc(F)c2c(c1)C(=O)N(Cc1ncc(C#N)cn1)[C@@]2(O[C@H]1CCOC1)c1ccc(Cl)cc1)C1(F)CCOCC1` [Example 508, 2-{[(1R)-1-(4-chlorophenyl)-7-fluoro-5-[(1S)-1-(4-fluorooxan-4-yl)-1-hydroxypropyl]-3-oxo-1-[(3S)-oxolan-3-yloxy]-2,3-dihydro-1H-isoindol-2-yl]methyl}pyrimidine-5-carbonitrile], the inhibition at 0.1 µM in experiment [2] (read-out: MDM2 % inhibition @0.10) stood at 17%. The inhibition at 10 µM in experiment [5] (Homo sapiens, SJSA-1, read-out: SJSA1 % inhibition at 10) stood at 11%; in experiment [4] (setting [6]) it was 9%.
On to `CCC(O)(c1cc(F)c2c(c1)C(=O)N(Cc1ncc(C#N)cn1)[C@@]2(OCCO)c1ccc(Cl)cc1)[C@H]1CC[C@H](O)CC1` (stereo partly drawn) [Example 510, 2-{[(1R)-1-(4-chlorophenyl)-7-fluoro-5-{1-hydroxy-1-[trans-4-hydroxycyclohexyl]propyl}-1-(2-hydroxyethoxy)-3-oxo-2,3-dihydro-1H-isoindol-2-yl]methyl}pyrimidine-5-carbonitrile], for which, in experiment [3], the inhibition at 50 µM was determined as 5%. For the same compound, in experiment [2], the inhibition at 0.001 µM is 79%. For the same compound, in experiment [4] (setting [6]), the inhibition at 10 µM worked out at 9%.
As for `[2H]C([2H])(O)C1(C([2H])([2H])O[C@]2(c3ccc(Cl)cc3)c3c(F)cc(C(C)(C)O)cc3C(=O)N2Cc2ncc(C#N)cn2)CC1` [Example 513, 2-{[(1R)-1-(4-chlorophenyl)-7-fluoro-1-({1-[hydroxydideuteromethyl]cyclopropyl}dideuteromethoxy)-5-(2-hydroxypropan-2-yl)-3-oxo-2,3-dihydro-1H-isoindol-2-yl]methyl}pyrimidine-5-carbonitrile], the inhibition at 50 µM in experiment [3] was 19%. In experiment [4] (setting [6]), the inhibition at 10 µM was 4%.
In the case of `CC[C@@](O)(c1cc(F)c2c(c1)C(=O)N(Cc1ncc(C#N)cn1)[C@@]2(O[C@H]1CCOC1)c1ccc(Cl)cc1)C1CCN(C)CC1` [Example 557, 2-{[(1R)-1-(4-chlorophenyl)-7-fluoro-5-[(1S)-1-hydroxy-1-(1-methylpiperidin-4-yl)propyl]-3-oxo-1-[(3S)-oxolan-3-yloxy]-2,3-dihydro-1H-isoindol-2-yl]methyl}pyrimidine-5-carbonitrile], the inhibition at 10 µM in experiment [3] (setting [9]) is 37%; in experiment [4] (setting [6]), 6%. The inhibition at 0.001 µM in experiment [2] was found to be 81%.

For the origin of these results see patent US11236047B2 (ASTEX THERAPEUTICS LIMITED, priority 2017, dated 2022).
